Data set [1] can be described thus: Cytotoxicity against human HeLa cells assessed as decrease in cell viability at 500 uM measured after 24 hrs relative to 2% DMSO control. Type of data set: cell-based. Conditions: read-out: INH.
The subject of data set [2] is HeLa. Put plainly: Antioxidant activity in human HeLa cells assessed as decrease in nuclear ROS at 500 uM measured after 24 hrs by CellROX reagent based flow cytometry. The format is functional, cell-based. For orientation: In flow cytometry, cells or beads pass a laser one at a time.
The subject of data set [3] is HeLa. Put plainly: Antioxidant activity in human HeLa cells assessed as increase in cellular thiol level at 500 uM measured after 24 hrs by Thiol-tracker violet molecular probe based assay. Type of data set: functional, cell-based.
The nature of data set [4]: Cytotoxicity against human HeLa cells assessed as effect on cell viability at 500 uM measured after 24 hrs (Rvb (2% DMSO) = 93.5 +/- 3.19 %). Type of data set: cell-based. The settings on record: read-out: Activity.
Data set [5] is described as follows: Photochromic activity assessed as photoinduced isomerization by measuring increase in intensity of the absorption at 568 to 574 nm by UV spectra.
The subject of data set [6] is HeLa. The data set can be described thus: Antioxidant activity in human HeLa cells assessed as decrease in mitochondrial ROS at 500 uM measured after 24 hrs by CellROX reagent based flow cytometry. The format is functional, cell-based.
In data set [7] the test system is HeLa. Put plainly: Antioxidant activity in human HeLa cells assessed as increase in cellular thiol level at 500 uM measured after 24 hrs by Thiol-tracker violet molecular probe based assay relative to control. Type of data set: functional.
The test system of data set [8] is HeLa. Put plainly: Antioxidant activity in human HeLa cells assessed as decrease in cytosolic ROS at 500 uM measured after 24 hrs by CellROX orange reagent based flow cytometry relative to control. The format is functional.
Data set [9] in a line: Cytotoxicity against human HeLa cells assessed as effect on cell viability at 2 mM measured after 24 hrs (Rvb (8% DMSO) = 79.08 +/- 10.78 %). Type of data set: cell-based. The settings on record: read-out: Activity.
The test system of data set [10] is HeLa. The data set can be described thus: Antioxidant activity in human HeLa cells assessed as decrease in cytosolic ROS at 500 uM measured after 24 hrs by CellROX orange reagent based flow cytometry. The format is functional, cell-based.
The nature of data set [11]: Effect on biochemical parameters of gross oxidative status in human HeLa cells at 500 uM measured after 24 hrs relative to control. Type of data set: ADME, cell-based.
Data set [12] deals with HeLa. Put plainly: Antioxidant activity in human HeLa cells assessed as decrease in nuclear ROS at 500 uM measured after 24 hrs by CellROX reagent based flow cytometry relative to control. The format is functional.
Data set [13] in a line: Cytotoxicity against human HeLa cells assessed as decrease in cell viability at 2 mM measured after 24 hrs relative to 8% DMSO control. Conditions: read-out: INH. The format is cell-based.
Data set [14] concerns HeLa. The data set can be described thus: Antioxidant activity in human HeLa cells assessed as decrease in mitochondrial ROS at 500 uM measured after 24 hrs by CellROX reagent based flow cytometry relative to control. The format is functional.
In data set [15] the test system is HeLa. Put plainly: Antioxidant activity in human HeLa cells assessed as increase in cellular thiol level at 2 mM measured after 24 hrs by Thiol-tracker violet molecular probe based assay relative to control. The format is functional.
The test system of data set [16] is HeLa. Put plainly: Cytotoxicity against human HeLa cells assessed as decrease in cell viability measured after 24 hrs. Type of data set: cell-based.

Consider five molecules from ChEMBL document CHEMBL4673323, “Novel molecular hybrids of indoline spiropyrans and α-lipoic acid as potential photopharmacological agents: Synthesis, structure, photochromic and biological properties” (Bioorg Med Chem Lett, 2021).

Activity calls are given as the source filed them. The calls are words filed in the database; no cut-off is given here.

Turning to `COc1ccc2c(c1)C(C)(C)C1(C=Cc3c(ccc4ccc(OC(=O)CCCCC5CCSS5)cc34)O1)N2C` (stereo unspecified), in [1], the cytotoxicity at 24 h, 500 µM was 8.3%. Also, the inhibition entry in the data set on HeLa [2] and in the data set on HeLa [6] was “inactive” throughout. Besides, the result (in the data set with HeLa [3]; in [5]) was Active. The viability at 24 h, 500 µM in data set [4] came out at 89.3%. The Activity in the data set on HeLa [7] stood at 30%. Besides, the inhibition at 500 µM with HeLa [8] stood at 78%. The viability at 24 h, 2000 µM in data set [9] turned out to be 77.9%.
Turning to `CN1c2ccccc2C(C)(C)C12C=Cc1c(ccc3ccc(OC(=O)CCCCC4CCSS4)cc13)O2` (stereo unspecified), the inhibition entry in the data set on HeLa [10] is “inactive”. Moreover, the Activity entry in data set [11] is recorded as “Non-Toxic”; with HeLa [7] it was 35%. Besides, the result in the data set with HeLa [3] was Active. In [4], the viability at 24 h, 500 µM came out at 95%. The result in [5] was inactive. In addition, in [9], the viability at 24 h, 2000 µM came out at 73.4%.
Regarding `O=C(O)CCCCC1CCSS1` (stereo not drawn) [LIPOIC ACID, ALPHA], the inhibition at 500 µM in the data set with HeLa [12] and in the data set on HeLa [14] was 31% throughout. For the same molecule, the viability at 24 h, 500 µM in data set [4] was 94.7%. Further, in [13], the cytotoxicity at 24 h, 2000 µM was 32.7%. In addition, in the data set with HeLa [15], the Activity is recorded as 90%. Also, the viability at 24 h, 2000 µM in data set [9] stood at 51.8%.
Consider `CN1c2ccccc2C(C)(C)C12C=Cc1c(ccc3ccc(O)cc13)O2` (stereo unspecified), for which the cytotoxicity at 24 h, 500 µM in data set [1] is 11.9%. In data set [4], the viability at 24 h, 500 µM came to 84.5%. The result in data set [5] was inactive. In addition, the viability at 24 h, 2000 µM in [9] was 66.5%.
On to `COc1ccc2c(c1)C(C)(C)C1(C=Cc3c(ccc4ccc(O)cc34)O1)N2C` (stereo unspecified), for which the cytotoxicity at 24 h, 500 µM in [1] came to 98.4%. Also, the viability at 24 h, 500 µM in [4] was 4.19%. Besides, the cytotoxicity at 24 h, 2000 µM in data set [13] stood at 93.7%. In addition, the 50% inhibitory concentration (IC50) with HeLa [16] is 46.2 µM. The viability at 24 h, 2000 µM in data set [9] worked out at 5%.

In general, inhibition refers to the relative decrease from the control value, in per cent. Broadly, the IC50 is the point on the concentration scale where inhibition reaches its midpoint.
